We go through nine molecules from PubChem BioAssay (NCI).

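Tested at 5 concentrations; 48 h exposure; 96-well plates; endpoints linearly interpolated, else capped at highest concentration. The concentration for 50% growth inhibition is given as GI50. TGI is the concentration that stops growth completely.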

One may read the GI50 as the concentration that inhibits growth by half. As a reminder, the TGI is the concentration at which net growth stops.

Some test systems named below: DU-145 prostate; SNB-19 CNS; U251 CNS; OVCAR-4 ovarian; SN12C renal; TK-10 renal; HCT-116 colon; UACC-62 melanoma; UO-31 renal; SK-MEL-28 melanoma.
What all share (experiment): DTP human tumour cell line panel, 48 h

As for `O=C(O)CP(=O)(c1ccccc1)c1ccccc1.O=C(O)CP(=O)(c1ccccc1)c1ccccc1.[Cd]`, the GI50 in the assay with DU-145 prostate is 19.4 µM; with SNB-19 CNS it was 48.1 µM; with U251 CNS it was 14.3 µM; in the assay with OVCAR-4 ovarian, 13.3 µM; with SN12C renal it was 16.4 µM; in the assay with TK-10 renal it was 16.9 µM. The GI50 is 20 µM in the assay with HCT-116 colon, 2.2 µM in the assay with UACC-62 melanoma, 21.6 µM with UO-31 renal and 17.9 µM in the assay with SK-MEL-28 melanoma. The concentration for total growth inhibition (TGI) is 41.3 µM in the assay on DU-145 prostate; above 100 µM in the assay with SNB-19 CNS; 28.9 µM in the assay with U251 CNS; 34.1 µM in the assay on OVCAR-4 ovarian; 31.1 µM in the assay on SN12C renal; 34.5 µM in the assay on TK-10 renal. For the same molecule, the TGI with HCT-116 colon came to 47.3 µM; with UACC-62 melanoma it was 6.31 µM; with UO-31 renal, 49.1 µM; in the assay on SK-MEL-28 melanoma, 41.8 µM.

With `COc1ccc2cc(C(=O)/C=C/c3ccco3)ccc2c1`, the GI50 is 23.9 µM in the assay on DU-145 prostate; above 100 µM with SNB-19 CNS; 28.5 µM with U251 CNS; 64.3 µM with OVCAR-4 ovarian; 31.3 µM with SN12C renal; 25.6 µM with TK-10 renal. Moreover, the GI50 in the assay on HCT-116 colon is 1.29 µM; in the assay with UACC-62 melanoma, 26.6 µM; with UO-31 renal, 37.5 µM; in the assay with SK-MEL-28 melanoma, above 100 µM. The TGI in the assay on DU-145 prostate is 88.6 µM; in the assay with SNB-19 CNS, above 100 µM; in the assay with U251 CNS it was 97.4 µM; with OVCAR-4 ovarian, above 100 µM; with SN12C renal, above 100 µM; in the assay with TK-10 renal, 70 µM. In addition, the TGI in the assay on HCT-116 colon is 35.6 µM; in the assay on UACC-62 melanoma, above 100 µM; in the assay with UO-31 renal it was above 100 µM; with SK-MEL-28 melanoma, above 100 µM.

Regarding `Cc1cccc2c1NC(=O)C2(c1ccc(O)cc1)c1ccc(O)cc1`, the GI50 with DU-145 prostate is 15.3 µM; in the assay with SNB-19 CNS, 28.5 µM; in the assay with U251 CNS it was 18.9 µM; in the assay with OVCAR-4 ovarian, below 0.01 µM; in the assay with SN12C renal, below 0.01 µM; in the assay with TK-10 renal, 0.0206 µM. In addition, the GI50 in the assay with HCT-116 colon was 11.3 µM; in the assay on UACC-62 melanoma it was 11.4 µM; in the assay on UO-31 renal, 13.1 µM; in the assay with SK-MEL-28 melanoma, 16.4 µM. The TGI in the assay on DU-145 prostate was 55.4 µM; with SNB-19 CNS, above 100 µM; in the assay on U251 CNS, 48.9 µM; in the assay on OVCAR-4 ovarian, below 0.0174 µM; with SN12C renal, 15.4 µM; in the assay on TK-10 renal it was 39.1 µM. Also, the total growth inhibition concentration (TGI) was 25.5 µM in the assay with HCT-116 colon, 35.1 µM in the assay on UACC-62 melanoma, 78.8 µM with UO-31 renal and 46.5 µM in the assay with SK-MEL-28 melanoma.

For the molecule `CC(C(=O)N1C(=O)N(C(=O)[C@H](C)C(O)c2ccccc2)[C@H](c2ccccc2)[C@H]1c1ccccc1)[C@@H](O)c1ccccc1` (stereo partly drawn), the total growth inhibition concentration (TGI) in the assay on DU-145 prostate, with SNB-19 CNS, in the assay with U251 CNS, in the assay with OVCAR-4 ovarian, with SN12C renal and in the assay on TK-10 renal was above 100 µM each time. Moreover, the TGI with HCT-116 colon is above 100 µM; with UACC-62 melanoma, 51.1 µM; with UO-31 renal it was above 100 µM; in the assay with SK-MEL-28 melanoma, above 100 µM.

With `COc1ccc(N2C(=O)C3c4[nH]c5cc(Cl)ccc5c4C4CCC(C(C)(C)C)CC4C3C2=O)cc1` (stereo not drawn), the TGI in the assay with DU-145 prostate, in the assay on SNB-19 CNS, with U251 CNS, in the assay with OVCAR-4 ovarian, in the assay on SN12C renal and in the assay on TK-10 renal was above 100 µM each time. Also, the TGI in the assay on HCT-116 colon, in the assay with UACC-62 melanoma, in the assay with UO-31 renal and with SK-MEL-28 melanoma was above 100 µM each time.

`Cc1ccc(C(CC(=O)c2ccccc2)C(C(=O)c2ccccc2)C(c2ccc(C)cc2)C2C(=O)NC(=S)NC2=O)cc1` (stereo not drawn): the GI50 is 18.5 µM in the assay with DU-145 prostate; 25.1 µM with SNB-19 CNS; 16.3 µM in the assay with U251 CNS; above 50 µM with OVCAR-4 ovarian; 25.1 µM with SN12C renal; 20.6 µM in the assay with TK-10 renal. Besides, the GI50 is 19 µM in the assay with HCT-116 colon, 19.5 µM with UACC-62 melanoma, 6.93 µM with UO-31 renal and above 50 µM in the assay with SK-MEL-28 melanoma. Also, the TGI in the assay with DU-145 prostate, with SNB-19 CNS, with U251 CNS, with OVCAR-4 ovarian, in the assay on SN12C renal and with TK-10 renal was above 50 µM in each case. For the same molecule, the total growth inhibition concentration (TGI) in the assay with HCT-116 colon was above 50 µM; in the assay with UACC-62 melanoma, above 50 µM; in the assay with UO-31 renal, 29.3 µM; with SK-MEL-28 melanoma, above 50 µM.

Take `CCCN(CCC)c1ccc(/C=N/NC(=O)c2cccnc2)cc1`: the GI50 in the assay on DU-145 prostate was 36.1 µM; with SNB-19 CNS it was 53.8 µM; in the assay with U251 CNS, 26.9 µM; in the assay on OVCAR-4 ovarian, 35.4 µM; in the assay with SN12C renal it was 40.4 µM; in the assay with TK-10 renal, 32.4 µM. Besides, the GI50 is 23.5 µM in the assay with HCT-116 colon, 34.7 µM with UACC-62 melanoma, 43.3 µM with UO-31 renal and 33.6 µM in the assay with SK-MEL-28 melanoma. The TGI in the assay with DU-145 prostate, in the assay on SNB-19 CNS, in the assay with U251 CNS, in the assay with OVCAR-4 ovarian, in the assay on SN12C renal and with TK-10 renal was above 100 µM in each case. In addition, the TGI in the assay on HCT-116 colon, in the assay on UACC-62 melanoma, in the assay on UO-31 renal and in the assay on SK-MEL-28 melanoma was above 100 µM in each case.

On to `Nc1nc(Cl)nc2c1ncn2C1CCC(COP(=O)(O)OP(=O)(O)OP(=O)(O)O)O1` (stereo not drawn), for which the total growth inhibition concentration (TGI) in the assay with DU-145 prostate is 69.8 µM; with SNB-19 CNS, above 100 µM; in the assay on U251 CNS, above 100 µM; in the assay on OVCAR-4 ovarian, 77.8 µM; with SN12C renal it was above 100 µM; in the assay on TK-10 renal, above 100 µM. Further, the TGI is above 100 µM with HCT-116 colon, 47.9 µM in the assay with UACC-62 melanoma, 48.2 µM with UO-31 renal and 54.1 µM in the assay on SK-MEL-28 melanoma.

Regarding `CCCC(=O)Nc1ncnc2c1ncn2C1OC2COP(=O)(O)OC2C1OC(=O)CCC` (stereo not drawn), the GI50 in the assay with DU-145 prostate, in the assay with SNB-19 CNS, with U251 CNS, with OVCAR-4 ovarian, with SN12C renal and in the assay on HCT-116 colon was above 1000 µM throughout. For the same molecule, the GI50 with UACC-62 melanoma and in the assay on SK-MEL-28 melanoma was above 1000 µM in each case. Besides, the TGI in the assay with DU-145 prostate, in the assay with SNB-19 CNS, in the assay with U251 CNS, with OVCAR-4 ovarian, in the assay with SN12C renal and with TK-10 renal was above 1000 µM in each case. Moreover, the TGI with HCT-116 colon, in the assay with UACC-62 melanoma, in the assay with UO-31 renal and in the assay on SK-MEL-28 melanoma was above 1000 µM in each case.
